Drawing on BindingDB's records for doi:10.1016/j.bmc.2010.06.025 (Wayne State University, 2010), this text covers Ki for one molecule.

For one experiment, the target named is D(3) dopamine receptor (Rattus norvegicus, UniProt P19020). The experiment can be described thus: Displacement of [3H]spiperone from rat D3 receptor expressed in HEK293 cells.
The next experiment concerns the target D(2) dopamine receptor (Rattus norvegicus, UniProt P61169). The experiment can be described thus: Displacement of [3H]spiperone from rat D2 receptor expressed in HEK293 cells.

Sequence of D(2) dopamine receptor (P61169 whole entry): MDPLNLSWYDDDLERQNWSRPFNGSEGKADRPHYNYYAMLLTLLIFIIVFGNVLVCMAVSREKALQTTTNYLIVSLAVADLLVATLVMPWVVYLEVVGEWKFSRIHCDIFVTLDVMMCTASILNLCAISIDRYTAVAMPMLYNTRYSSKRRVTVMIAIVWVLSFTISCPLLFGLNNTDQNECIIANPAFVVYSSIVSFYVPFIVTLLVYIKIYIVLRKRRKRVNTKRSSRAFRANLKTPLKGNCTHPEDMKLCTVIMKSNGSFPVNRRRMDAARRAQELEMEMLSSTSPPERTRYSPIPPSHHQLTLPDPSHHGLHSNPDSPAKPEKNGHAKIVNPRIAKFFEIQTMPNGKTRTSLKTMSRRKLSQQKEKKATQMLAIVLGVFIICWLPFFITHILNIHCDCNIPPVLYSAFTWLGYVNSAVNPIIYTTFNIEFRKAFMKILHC
Sequence of D(3) dopamine receptor (P19020 whole entry): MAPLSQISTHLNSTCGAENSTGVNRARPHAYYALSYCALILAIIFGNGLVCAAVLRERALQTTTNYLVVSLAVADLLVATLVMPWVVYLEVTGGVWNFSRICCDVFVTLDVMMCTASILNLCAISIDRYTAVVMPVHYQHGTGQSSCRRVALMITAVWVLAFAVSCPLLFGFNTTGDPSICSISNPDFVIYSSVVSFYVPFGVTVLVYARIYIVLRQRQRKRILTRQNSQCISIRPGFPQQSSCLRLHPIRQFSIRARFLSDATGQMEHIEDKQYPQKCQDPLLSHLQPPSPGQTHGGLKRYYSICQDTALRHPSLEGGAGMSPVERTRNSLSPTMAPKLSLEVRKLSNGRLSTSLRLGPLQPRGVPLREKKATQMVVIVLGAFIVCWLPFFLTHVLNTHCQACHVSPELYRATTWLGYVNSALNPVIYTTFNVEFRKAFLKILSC

Consider `CCCN(CCN1CCN(c2ccc(-c3ccncc3)cc2)CC1)C1CCc2ccc(O)cc2C1` (stereo not drawn) [(+)-7-(propyl(2-(4-(4-(pyridin-4-yl)-phenyl)piperazin-1-yl)ethyl)amino)-5,6,7,8-tetrahydronaphthalen-2-ol], for which the Ki was 16.2 nM on D(3) dopamine receptor and 399 nM on D(2) dopamine receptor.
